Measured values taken from patent US20190106454A1, “COMPOUNDS LINKED WITH A SACCHARIDE METAL COMPLEX AND USES THEREOF” (FRED HUTCHINSON CANCER RESEARCH CENTER, priority 2016, published 2019).
“Also recorded” adds a separate entry of the source.

Experiments:
heme oxygenase 1 (HO-1) [1] = test: Induction of HO-1 mRNA (RT-PCR) and protein (ELISA) in renal cortex and plasma; format: in vivo, mice; details: for renal cortical HO-1 protein levels / increase in renal cortical HO-1 levels over baseline: ELISA; for increase in renal cortical HO-1 levels over baseline / renal cortical HO-1 mRNA induction: 1 umole; for renal cortical HO-1 mRNA induction: RT-PCR (FIG. 11)
Text: (§1) Methods. Male CD-1 mice (25-40 grams) Charles River, Wilmington, Mass.) were used for all experiments. They were housed under standard vivarium conditions with free food and water access. All experiments were approved by the Fred Hutchinson Cancer Research Center IACUC in accordance with NIH guidelines.
Effects of FeS, SnPP, and B12 on renal cortical induction of heme oxygenase 1 (HO-1). The following experiments assessed the effects of FeS, SnPP, and B12 on the possible induction of the cytoprotective protein HO-1. To this end, mice were injected with each of these agents, as noted above. Either 4 or 18 hrs later, they were anesthetized and the kidneys were removed through a midline abdominal incision. The renal cortices were dissected on ice and then extracted for protein and mRNA. The samples were then assayed for HO-1 protein by ELISA, and HO-1 mRNA by RT-PCR, factored by GAPDH levels. Five normal mice provided control values. […]

[2] = tested on: renal ischemia-reperfusion (IRI) induced AKI in mice; test: Renal ischemic-reperfusion injury (IRI) model of AKI; format: in vivo; details: 1 umole 18 hrs before 22 min bilateral ischemic injury
Protocol: as §1
Renal ischemic—reperfusion injury (IRI) model of AKI. The following experiment assessed whether combination FeS+SnPP can mitigate the renal artery occlusion model of AKI. Mice received 200 μl tail vein injections of either PBS (n, 9) or FeS+SnPP (n, 8), as noted above. Eighteen hrs later, the mice were deeply anesthetized with pentobarbital (40-50 mg/Kg IP), the abdominal cavities were opened, the renal pedicles were identified and both were occluded with microvascular clamps. Body temperature was maintained at 36-37° C. throughout. Following 22 minutes of bilateral renal ischemia, the clamps were removed, uniform reperfusion was visually confirmed by the reappearance of a normal renal color (loss of tissue cyanosis), and then the abdominal cavities were closed in two layers with silk suture. […] The severity of renal injury was determined by BUN and PCr concentrations.
Protection against acute kidney injury. […] AKI severity are determined by degrees of BUN and plasma creatinine increases.

haptoglobin = test: Induction of haptoglobin mRNA and protein in renal cortex and plasma; format: in vivo, mice; details: 1 umole; for renal cortical haptoglobin mRNA induction: 4 hrs post injection, RT-PCR (FIG. 11)
Protocol: MesP up-regulates Nrf2 sensitive genes. Mice are injected MesP (0.1-2.5 umoles/mouse) or with a MesP vehicle. At either 4 or 18 hrs, the mice are deeply anesthetized with pentobarbital and the kidneys are removed through a midline abdominal incision. The renal cortices are dissected on ice, extracted for protein and mRNA, and assayed for HO-1 and haptoglobin protein and mRNA levels by ELISA and competitive RT-PCR, respectively. In this regard, both HO-1 and haptoglobin are Nrf2 sensitive genes. An increase in HO-1 and haptoglobin mRNA and protein levels at 4 hrs and 18 hrs post MesP administration, respectively, is measured to confirm MesP, like SnPP, induces Nrf2 signaling.

heme oxygenase 1 (HO-1) [3] = test: Induction of HO-1 mRNA (RT-PCR) and protein (ELISA) in renal cortex and plasma; format: in vivo, mice; details: 1 umole, 18 hrs post injection
[4] = tested on: maleate-induced AKI in mice; test: Maleate model of AKI; format: in vivo; details: IV pre-treatment 18 hrs before IP Na maleate 800 mg/Kg, read 18 hrs post maleate
Text: as §1
Effects of Fe sucrose (FeS)/tin protoporphyrin (SnPP) on AKI severity. Maleate model of AKI. When injected into rodents, maleate undergoes relatively selective proximal tubule cell uptake via organic anion transporters. Once intracellular accumulation occurs, maleate is a preferred substrate for succinyl-CoA:3-oxoacid CoA transferase. […] Ample levels of CoA are essential for fatty acid “activation”, allowing for their subsequent metabolism through the Krebs cycle, yielding ATP. In the absence of this process, proximal tubule ATP depletion and cell injury result. Additionally, maleate conjugates the sulfhydryl group of glutathione (GSH), culminating in GSH depletion and potential oxidant tubular stress.
The following experiment tested whether FeS, SnPP or combined FeS+SnPP can mitigate this form of acute kidney injury (AKI). Twenty seven mice were subjected to 200 μL IV tail injections of one of the following: 1) vehicle (phosphate buffered saline, PBS; n, 10); 2) 1 mg FeS (American Regent (Shirley, N.Y.; n, 3); 3) 1 μmole SnPP (Frontier Scientific, Logan, Utah; n 7), or FeS+SnPP, n, 7). Eighteen hrs later, all mice received an IP injection of Na maleate (800 mg/Kg; in 500 ul of PBS). Eighteen hrs later, the mice were deeply anesthetized with pentobarbital (50 mg/Kg IP), the abdominal cavities were opened, and blood samples were obtained from the abdominal vena cava. The severity of kidney injury was assessed by determining plasma blood urea nitrogen (BUN) and plasma creatinine (PCr) concentrations.
Maleate model of AKI. Mice received tail vein injections of either combination of FeS+B12 or vehicle (n, 6 per group). Eighteen hrs later they received IP maleate injections, as noted above. The severity of AKI was determined 18 hrs post maleate injection by terminal BUN and PCr assessments.

Ferritin heavy (Fhc) = test: Ferritin heavy chain Western blotting of renal cortex; format: in vivo, mice; details: 18 hr post treatment, Western blot band densitometry
Protocol: Ferritin heavy (Fhc) expression in renal cortex. HO-1 activity leads to increased Fhc expression. […] Because Fe sucrose also induces Fhc expression, the potential impact of SnPP treatment on this response was assessed (18 hrs post 1 mg FeS±concomitant SnPP treatment (n, 4 each)).

renal injury in rats = details: cited from earlier work
[5] = tested on: kidney dysfunction in glycerol model rhabdomyolysis; details: blocking HO with competitive inhibitor; cited from earlier work

cyanocobalamin [B12]
renal cortical HO-1 protein levels (heme oxygenase 1 (HO-1) [1]; 4 hrs post IV injection): marked HO-1 protein increases | renal cortical HO-1 protein levels (heme oxygenase 1 (HO-1) [1]; 18 hrs post IV injection): persists

tin mesoporphyrin [SnMeP]
ischemic damage (BUN and plasma creatinine concentrations) [2]: lessening of ischemic damage | increase in renal cortical HO-1 levels over baseline (heme oxygenase 1 (HO-1) [1]; 4 hrs post injection): 3 fold | renal cortical HO-1 mRNA induction (heme oxygenase 1 (HO-1) [1]; 4 hrs post injection): raised | increase in renal cortical HO-1 levels over baseline (heme oxygenase 1 (HO-1) [1]; 18 hrs post injection): 5 fold | plasma haptoglobin levels (haptoglobin; 4 and 18 hrs post injection): stepwise increases | renal cortical haptoglobin levels (haptoglobin; 4 and 18 hrs post injection): stepwise increases | renal cortical haptoglobin mRNA induction (haptoglobin): raised | rise in plasma HO-1 levels (heme oxygenase 1 (HO-1) [3]): 15 fold

C=Cc1c2[n-]c(c1C)/C=c1\[n-]/c(c(C)c1C=C)=C\c1[n-]c(c(CCC(=O)O)c1C)/C=c1\[n-]c(c(C)c1CCC(=O)O)=C2.[Sn+4] [SnPP, tin protoporphyrin]
severity of renal injury (BUN and PCr) [4]: Neither SnPP alone nor FeS alone significantly altered the severity of renal injury | severity of renal injury (BUN and PCr) ([4]; listed as Sn-protoporphyrin): Neither Sn-protoporphyrin alone nor iron-sucrose alone significantly altered the severity of renal injury | renal cortical HO-1 mRNA induction (heme oxygenase 1 (HO-1) [1]; 4 hrs post injection): raised | increase in Fhc expression over control values (Ferritin heavy (Fhc)): 24% | renal cortical haptoglobin mRNA induction (haptoglobin): raised | fractional excretion of sodium (renal injury in rats; day 2 after cisplatin, rats): increased | renal blood flow rates (renal injury in rats; day 2 after cisplatin, rats): reduced | renal vascular resistance (renal injury in rats; day 2 after cisplatin, rats): increased | inulin clearances (renal injury in rats; day 5): lower | serum creatinine values (renal injury in rats; days 3 through 5): higher | renal injury (renal injury in rats; pretreatment): exacerbated renal injury | kidney dysfunction [5]: exacerbated kidney dysfunction

Fe sucrose [FeS]
severity of renal injury (BUN and PCr) [4]: Neither SnPP alone nor FeS alone significantly altered the severity of renal injury | severity of renal injury (BUN and PCr) ([4]; listed as iron-sucrose): Neither Sn-protoporphyrin alone nor iron-sucrose alone significantly altered the severity of renal injury | renal cortical HO-1 protein levels (heme oxygenase 1 (HO-1) [1]; 4 hrs post IV injection): marked HO-1 protein increases | renal cortical HO-1 protein levels (heme oxygenase 1 (HO-1) [1]; 18 hrs post IV injection): remained elevated | renal cortical HO-1 protein levels (heme oxygenase 1 (HO-1) [1]; 18 hrs post IV injection, listed as iron-sucrose): persists; also recorded: remained elevated | increase in Fhc expression over control values (Ferritin heavy (Fhc)): 1-4%
